Results taken from paper PMC8621570, “Mechanistic Studies of Antibiotic Adjuvants Reducing Kidney’s Bacterial Loads upon Systemic Monotherapy” (Pharmaceutics, 2021).

Assays:
[1] = Peptide self-assembly (critical aggregation concentration) by static light scattering; type: physicochemical; conditions: light scattering in PBS
Experimental: Peptide self-assembly was determined by static light scattering measurements as described. Hemolysis was determined by measuring hemoglobin leakage from washed human RBCs, as described. Minimal inhibitory concentration (MIC) was determined using the microdilution assay, as described. Bactericidal kinetics were determined by mixing bacteria with rifampin, OAC, or their combinations, as described. Data were obtained from three independent assays performed in duplicate.

P. aeruginosa 27853 = experiment: Excisional skin wound infection model, topical treatment; type: in vivo, mouse; conditions: 4 h treatment, mice n = 3 per group
Experimental: (§1) Animals: All animal studies were performed using male ICR mice (25 ± 2 gr). The Technion Animal Care and Use committee approved all procedures, care, and handling of animals. Ethics approval codes: IL0800519, IL0640421, IL0550618, IL1811217.
(§2) For efficacy assessments, three infection models were used including one with topical treatment and two with systemic treatment. • Excisional skin wound infection model: mice were anesthetized by intraperitoneal administration of a mixture of ketamine 100 mg/kg and xylazine 5 mg/kg in PBS and their backs shaved with electric clippers. The following day mice were similarly anesthetized and were administrated (S.C) 0.05 mg/kg buprenorphine (for pain relief). A 5 mm diameter piece of skin was removed from the middle of the shaved back, with sterile biopsy punch resulting in a full-thickness injury. A total of 20 µL of a mid-logarithmic culture, containing 5 × 10^6 CFU P. aeruginosa 27853 were applied on the wound. Then, 15 min after inoculation, about 50 µL of hypromellose gel (prepared as described) containing OAC, antibiotic, or their combination were applied on the skin and covered with a piece of medical tape. As a control, the vehicle (drug-free gel) was similarly applied on the skin. After a treatment period of 4 h, about 8 mm diameter of skin surrounding the infected area was removed, suspended in PBS, homogenized, serially diluted 10-fold, and plated for CFU enumeration. The number of viable bacteria was determined after overnight incubation at 37 °C. The lower limit of detection was 50 CFU/wound. • Thigh infection model (TI): mice were inoculated intramuscularly with 1 × 10^6 CFU/mouse of mid-logarithmic E. coli 25922 and treated subcutaneously 1 and 3 h after inoculation. Mice were sacrificed 24 h after infection, their thighs excised, homogenized, serially diluted 10-fold, and plated for CFU enumeration. The number of viable bacteria was determined after overnight incubation at 37 °C. […] The number of viable bacteria was determined after overnight incubation at 37 °C. […]

Maximum tolerated dose = type: in vivo, mouse; conditions: single-dose subcutaneous, uninfected ICR mice, three mice per dose, monitored 7 days
Experimental: as §1
The maximum tolerated dose (MTD) was determined after a single-dose subcutaneous (S.C) administration of C14(ω5)OOc10O using three mice per dose. Animals were monitored for adverse effects for 7 days after injection.

E. coli UPEC CFT073 = experiment: Urinary tract infection model; type: in vivo, mouse
Experimental: as §1, §2

With `CCCCC=CCCCCCCCC(=O)N[C@@H](CCCN)C(=O)N[C@@H](CCCN)C(=O)NCCCCCCCCCC(=O)N[C@@H](CCCN)C(N)=O` [C14(ω5)OOc10O] the “CAC, critical aggregation concentration” value [1] was greater than 100 µM, the “Reduction of CFU count” value (P. aeruginosa 27853; hypromellose gel 0.2% (w/v)) was 0.5 log10 units and the “Reduction of CFU count” value (P. aeruginosa 27853; hypromellose gel 1% (w/v)) was 1.9 log10 units. For the same molecule, the “Maximal tolerated dose (MTD)” value (Maximum tolerated dose) was “higher than 40 mg/kg”, the “Effect on bladder CFU counts” value (E. coli UPEC CFT073; 12.5 mg/kg S.C at 1 and 6 h post-infection, CFU at 24 h) was “not those of the bladder” and the “Reduction of kidneys' CFU counts” value (E. coli UPEC CFT073; 12.5 mg/kg S.C at 1 and 6 h post-infection, CFU at 24 h, 10 mice per group, dead control mice not included) was > 2 orders of magnitude. The “Gap of kidneys' CFU counts with the treated group” value (E. coli UPEC CFT073; as above, if the two dead PBS-treated control mice were taken into consideration) was “four”.
